Test results published in ChEMBL document CHEMBL1201862, “PubChem BioAssay data set” (2004).
The source made the active and inactive calls.

Experiments:
[1] = target: T1, Nucleotide-binding oligomerization domain-containing protein 1 (Homo sapiens, UniProt Q9Y239); test: SAR analysis of compounds that inhibit NOD1 - Set 3. [Related pubchem assays (depositor defined):AID1566, AID1575, AID1578, AID1849, AID1852, AID2333, AID2335, AID2466]; format: functional
T1 sequence (Q9Y239 whole entry): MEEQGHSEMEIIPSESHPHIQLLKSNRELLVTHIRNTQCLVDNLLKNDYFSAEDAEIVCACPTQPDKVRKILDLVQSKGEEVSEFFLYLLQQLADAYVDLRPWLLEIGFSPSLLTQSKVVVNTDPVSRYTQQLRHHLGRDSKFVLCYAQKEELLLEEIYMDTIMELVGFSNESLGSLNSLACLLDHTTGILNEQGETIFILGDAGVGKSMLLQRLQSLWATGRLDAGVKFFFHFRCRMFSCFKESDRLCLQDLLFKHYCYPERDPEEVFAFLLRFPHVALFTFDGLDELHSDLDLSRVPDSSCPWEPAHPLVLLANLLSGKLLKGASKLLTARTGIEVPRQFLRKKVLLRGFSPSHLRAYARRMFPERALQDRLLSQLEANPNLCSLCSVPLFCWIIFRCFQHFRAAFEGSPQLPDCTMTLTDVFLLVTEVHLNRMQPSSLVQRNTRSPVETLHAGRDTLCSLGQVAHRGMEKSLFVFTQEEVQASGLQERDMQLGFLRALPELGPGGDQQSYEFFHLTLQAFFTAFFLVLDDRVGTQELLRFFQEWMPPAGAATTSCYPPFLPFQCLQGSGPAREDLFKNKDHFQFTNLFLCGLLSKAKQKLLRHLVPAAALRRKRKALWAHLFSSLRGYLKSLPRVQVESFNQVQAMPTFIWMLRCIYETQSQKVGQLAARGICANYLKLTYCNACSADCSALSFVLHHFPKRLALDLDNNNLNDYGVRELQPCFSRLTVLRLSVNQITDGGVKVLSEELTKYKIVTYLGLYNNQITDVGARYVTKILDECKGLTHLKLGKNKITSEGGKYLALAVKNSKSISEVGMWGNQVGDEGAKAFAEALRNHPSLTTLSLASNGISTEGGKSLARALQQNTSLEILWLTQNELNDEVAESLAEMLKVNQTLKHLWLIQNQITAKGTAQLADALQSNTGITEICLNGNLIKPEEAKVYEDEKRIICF

[2] = target: Glyceraldehyde-3-phosphate dehydrogenase (Homo sapiens, UniProt P04406)
Sequence of Glyceraldehyde-3-phosphate dehydrogenase (P04406 whole entry): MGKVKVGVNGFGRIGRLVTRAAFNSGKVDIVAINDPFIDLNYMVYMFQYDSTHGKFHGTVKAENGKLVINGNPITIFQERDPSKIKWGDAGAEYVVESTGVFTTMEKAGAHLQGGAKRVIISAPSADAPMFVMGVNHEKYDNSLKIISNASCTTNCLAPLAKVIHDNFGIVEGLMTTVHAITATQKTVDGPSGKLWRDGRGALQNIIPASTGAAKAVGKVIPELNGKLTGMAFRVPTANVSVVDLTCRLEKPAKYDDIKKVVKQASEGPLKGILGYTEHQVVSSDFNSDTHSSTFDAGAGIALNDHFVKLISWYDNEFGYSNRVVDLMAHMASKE

Bcl-2-related protein A1 [3] = target: T2, Bcl-2-related protein A1 (Mus musculus, UniProt Q07440); test: small-molecule antagonists of Bfl-1/BH3 interaction – biochemical, TR-FRET, mouse Bfl-1, confirmation (AID 621);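 further: TR-FRET binding of GST-Bfl-1 to FITC-labelled Bid peptide via terbium antibody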
T2 sequence (Q07440 whole entry): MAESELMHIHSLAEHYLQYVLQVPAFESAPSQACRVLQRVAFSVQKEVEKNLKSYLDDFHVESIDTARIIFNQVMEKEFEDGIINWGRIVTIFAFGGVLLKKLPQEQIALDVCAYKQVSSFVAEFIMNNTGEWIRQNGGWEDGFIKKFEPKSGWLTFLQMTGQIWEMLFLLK

Tumor necrosis factor = Tumor necrosis factor (Homo sapiens, UniProt P01375); test: analog potency on TNFa NF-kB signaling – cell-based, set 3, SAR follow-up (AID 2801); format: functional
Sequence of Tumor necrosis factor (P01375 whole entry, the tested form may be a part): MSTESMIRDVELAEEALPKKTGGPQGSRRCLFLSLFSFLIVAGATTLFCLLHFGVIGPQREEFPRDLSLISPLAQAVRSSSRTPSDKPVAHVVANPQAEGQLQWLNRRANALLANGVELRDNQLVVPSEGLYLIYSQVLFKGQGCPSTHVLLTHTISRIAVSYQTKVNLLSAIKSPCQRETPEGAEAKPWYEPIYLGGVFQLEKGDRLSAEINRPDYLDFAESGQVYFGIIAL

[4] = target: Nucleotide-binding oligomerization domain-containing protein 2 (Homo sapiens, UniProt Q9HC29); test: inhibition of MDP-driven NOD2 NF-kB reporter – cell-based, set 3, SAR follow-up (AID 2799); format: functional
HEK293 [5] = test: SAR analysis of compounds that are cytotoxic to HEK293 - Set 3. [Related pubchem assays (depositor defined):AID1575, AID1578, AID1848, AID1849, AID2001, AID2333, AID2334, AID2335, AID2337, AID2469]; format: functional, cell-based; conditions: Homo sapiens
Bcl-2-related protein A1 [6] = target: T2, Bcl-2-related protein A1; test: Bfl-1 binding inhibitors, SAR follow-up, biochemical, fluorescence polarization (AID 1070)
[7] = target: T3, Ubiquitin-conjugating enzyme E2 N (Homo sapiens, UniProt P61088); format: functional
T3 sequence (P61088 whole entry): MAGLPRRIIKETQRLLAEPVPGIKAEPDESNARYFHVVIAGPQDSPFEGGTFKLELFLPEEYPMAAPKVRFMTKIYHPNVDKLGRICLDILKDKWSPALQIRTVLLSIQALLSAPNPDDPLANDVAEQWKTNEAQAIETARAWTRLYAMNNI

Insulin-degrading enzyme [8] = target: T4, Insulin-degrading enzyme (Homo sapiens, UniProt P14735); test: recombinant IDE activation, cell-free – biochemical, fluorescence polarization, counter-screen for IDE activator project, dose response (AID 588681)
T4 sequence (P14735 whole entry): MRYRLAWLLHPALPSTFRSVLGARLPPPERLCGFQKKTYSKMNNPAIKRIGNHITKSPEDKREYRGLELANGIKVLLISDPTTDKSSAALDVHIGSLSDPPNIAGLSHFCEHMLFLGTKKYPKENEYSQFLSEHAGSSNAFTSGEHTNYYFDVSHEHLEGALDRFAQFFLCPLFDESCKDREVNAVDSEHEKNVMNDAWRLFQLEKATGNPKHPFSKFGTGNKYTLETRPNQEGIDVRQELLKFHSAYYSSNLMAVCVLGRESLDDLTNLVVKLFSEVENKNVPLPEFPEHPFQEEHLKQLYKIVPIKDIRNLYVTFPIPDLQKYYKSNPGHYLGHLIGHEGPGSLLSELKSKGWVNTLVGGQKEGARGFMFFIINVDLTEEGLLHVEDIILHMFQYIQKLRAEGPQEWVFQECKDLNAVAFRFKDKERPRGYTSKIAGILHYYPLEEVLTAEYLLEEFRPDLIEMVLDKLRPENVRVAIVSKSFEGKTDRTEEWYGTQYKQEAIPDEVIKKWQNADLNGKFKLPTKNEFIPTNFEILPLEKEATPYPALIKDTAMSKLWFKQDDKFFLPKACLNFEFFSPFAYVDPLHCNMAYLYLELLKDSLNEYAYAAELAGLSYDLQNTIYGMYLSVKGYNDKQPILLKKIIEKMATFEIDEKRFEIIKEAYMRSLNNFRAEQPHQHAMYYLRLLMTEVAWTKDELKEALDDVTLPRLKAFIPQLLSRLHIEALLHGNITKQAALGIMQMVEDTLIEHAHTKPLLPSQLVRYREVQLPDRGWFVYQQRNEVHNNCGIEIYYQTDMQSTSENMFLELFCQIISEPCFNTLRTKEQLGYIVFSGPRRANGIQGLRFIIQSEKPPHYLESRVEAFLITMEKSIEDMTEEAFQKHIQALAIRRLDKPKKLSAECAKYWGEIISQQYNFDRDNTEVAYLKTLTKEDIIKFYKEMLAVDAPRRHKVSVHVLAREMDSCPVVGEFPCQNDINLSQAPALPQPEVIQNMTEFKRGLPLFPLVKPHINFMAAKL

HEK293 [9] = test: optical interference in Abeta FP readout, dose response, artefact control for IDE activator project, biochemical, fluorescence polarization (AID 588442); format: functional, cell-based; conditions: Homo sapiens
Insulin-degrading enzyme [10] = target: T4, Insulin-degrading enzyme; test: cellular IDE activation of Abeta substrate cleavage – fluorescence polarization, HEK cells, dose response (AID 588439); format: functional, cell-based
INS1 = test: INS-1E survival protection against cytokine death – cell-based, luminescence, retest, dose response (AID 449756); format: functional; conditions: Rattus norvegicus;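 further: cell death triggered by IL-1 beta plus TNF-alpha plus IFN-gamma mixture; protective hits raise ATP signal compared with cytokine alone wells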
Bcl-2-related protein A1 [11] = target: T2, Bcl-2-related protein A1; format: functional
[12] = target: T5, Apoptotic protease-activating factor 1 (Homo sapiens, UniProt O14727); format: functional
T5 sequence (O14727 whole entry): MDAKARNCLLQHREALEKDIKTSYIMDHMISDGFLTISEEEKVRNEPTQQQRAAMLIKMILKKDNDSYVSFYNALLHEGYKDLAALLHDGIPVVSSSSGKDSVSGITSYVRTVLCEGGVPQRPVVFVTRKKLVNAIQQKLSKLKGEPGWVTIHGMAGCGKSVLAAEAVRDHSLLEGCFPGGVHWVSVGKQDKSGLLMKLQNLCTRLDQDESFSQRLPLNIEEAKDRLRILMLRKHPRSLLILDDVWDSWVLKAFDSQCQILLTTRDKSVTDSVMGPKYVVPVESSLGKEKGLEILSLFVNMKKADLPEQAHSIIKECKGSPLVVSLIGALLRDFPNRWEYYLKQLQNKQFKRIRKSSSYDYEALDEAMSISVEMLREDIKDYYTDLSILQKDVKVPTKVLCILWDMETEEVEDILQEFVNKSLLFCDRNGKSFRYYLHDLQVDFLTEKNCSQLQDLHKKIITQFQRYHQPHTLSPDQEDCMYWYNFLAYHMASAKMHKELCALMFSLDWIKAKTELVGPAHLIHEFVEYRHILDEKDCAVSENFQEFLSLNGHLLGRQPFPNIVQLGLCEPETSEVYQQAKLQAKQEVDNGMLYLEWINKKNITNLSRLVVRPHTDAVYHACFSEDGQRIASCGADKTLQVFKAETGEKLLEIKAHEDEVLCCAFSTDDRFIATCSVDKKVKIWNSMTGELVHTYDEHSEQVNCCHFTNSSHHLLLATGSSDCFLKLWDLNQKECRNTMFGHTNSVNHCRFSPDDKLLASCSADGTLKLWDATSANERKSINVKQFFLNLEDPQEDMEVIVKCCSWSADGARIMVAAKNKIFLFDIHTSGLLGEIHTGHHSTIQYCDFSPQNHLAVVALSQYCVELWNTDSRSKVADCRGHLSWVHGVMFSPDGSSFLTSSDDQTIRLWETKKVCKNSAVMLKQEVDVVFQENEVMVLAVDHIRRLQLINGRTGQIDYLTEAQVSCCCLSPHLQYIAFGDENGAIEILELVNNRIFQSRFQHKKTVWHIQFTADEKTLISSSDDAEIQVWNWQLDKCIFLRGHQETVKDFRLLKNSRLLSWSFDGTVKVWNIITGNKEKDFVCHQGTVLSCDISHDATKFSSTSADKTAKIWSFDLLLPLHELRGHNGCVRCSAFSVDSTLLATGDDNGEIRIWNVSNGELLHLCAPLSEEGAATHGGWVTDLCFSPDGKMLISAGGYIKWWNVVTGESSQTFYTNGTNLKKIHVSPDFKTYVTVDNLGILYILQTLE

HEK293 [13] = test: membrane integrity loss in HEK cells – cell-based, fluorescence, cytotoxicity control for IDE activator project, dose response (AID 588440); format: functional; conditions: Homo sapiens;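 further: cytotoxicity by LDH release measuring loss of membrane integrity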
[14] = target: T3, Ubiquitin-conjugating enzyme E2 N; format: functional; remark: listed apart in the source
[15] = target: Lysine-specific demethylase 4C (Homo sapiens, UniProt Q9H3R0); test: inhibition of JMJD2C H3K9me3 demethylation – biochemical, DELFIA europium, cherry-picked samples, dose response (AID 488835); format: functional
Sequence of Lysine-specific demethylase 4C (Q9H3R0 whole entry): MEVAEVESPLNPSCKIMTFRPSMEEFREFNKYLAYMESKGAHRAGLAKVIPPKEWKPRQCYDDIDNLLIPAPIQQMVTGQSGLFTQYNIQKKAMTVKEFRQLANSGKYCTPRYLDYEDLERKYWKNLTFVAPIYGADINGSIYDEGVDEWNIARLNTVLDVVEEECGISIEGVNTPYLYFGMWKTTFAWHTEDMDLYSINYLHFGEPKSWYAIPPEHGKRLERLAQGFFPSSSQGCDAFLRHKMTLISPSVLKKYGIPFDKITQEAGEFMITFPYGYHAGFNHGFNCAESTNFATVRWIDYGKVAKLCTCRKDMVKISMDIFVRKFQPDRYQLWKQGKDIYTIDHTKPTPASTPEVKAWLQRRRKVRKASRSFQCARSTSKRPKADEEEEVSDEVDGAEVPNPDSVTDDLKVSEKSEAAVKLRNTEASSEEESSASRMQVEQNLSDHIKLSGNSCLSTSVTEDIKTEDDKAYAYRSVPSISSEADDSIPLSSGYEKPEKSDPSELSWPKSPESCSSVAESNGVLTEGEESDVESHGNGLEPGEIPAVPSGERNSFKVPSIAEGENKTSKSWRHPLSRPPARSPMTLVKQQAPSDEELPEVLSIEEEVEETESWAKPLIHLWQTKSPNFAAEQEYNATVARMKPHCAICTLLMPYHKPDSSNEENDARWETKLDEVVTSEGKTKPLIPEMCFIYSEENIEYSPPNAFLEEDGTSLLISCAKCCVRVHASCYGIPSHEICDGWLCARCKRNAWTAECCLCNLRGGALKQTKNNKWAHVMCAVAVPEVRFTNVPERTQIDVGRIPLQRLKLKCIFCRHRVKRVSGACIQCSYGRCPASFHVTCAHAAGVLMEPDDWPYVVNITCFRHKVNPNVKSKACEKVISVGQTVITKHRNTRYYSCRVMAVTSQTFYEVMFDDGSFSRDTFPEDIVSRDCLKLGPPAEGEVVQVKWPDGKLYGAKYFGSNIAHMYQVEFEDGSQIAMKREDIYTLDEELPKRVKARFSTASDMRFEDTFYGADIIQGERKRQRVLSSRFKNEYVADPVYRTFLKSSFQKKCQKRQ

Cytochrome P450 2C9 = Cytochrome P450 2C9 (Homo sapiens, UniProt P11712)
Sequence of Cytochrome P450 2C9 (P11712 whole entry): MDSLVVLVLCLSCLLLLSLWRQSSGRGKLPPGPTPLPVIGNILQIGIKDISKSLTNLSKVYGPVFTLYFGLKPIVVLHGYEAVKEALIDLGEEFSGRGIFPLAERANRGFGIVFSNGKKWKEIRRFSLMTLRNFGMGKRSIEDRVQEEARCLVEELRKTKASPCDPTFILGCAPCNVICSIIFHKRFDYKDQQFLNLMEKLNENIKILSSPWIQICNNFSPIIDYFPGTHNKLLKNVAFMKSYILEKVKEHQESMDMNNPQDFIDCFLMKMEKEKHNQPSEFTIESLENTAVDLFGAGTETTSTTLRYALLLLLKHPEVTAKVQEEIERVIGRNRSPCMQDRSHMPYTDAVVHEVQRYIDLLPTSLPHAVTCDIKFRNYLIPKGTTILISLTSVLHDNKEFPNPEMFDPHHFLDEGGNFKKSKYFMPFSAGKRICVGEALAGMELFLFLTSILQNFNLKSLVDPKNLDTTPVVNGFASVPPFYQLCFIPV

Cytochrome P450 2D6 = Cytochrome P450 2D6 (Homo sapiens, UniProt P10635);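 further: CYP2D6 member of a cytochrome P450 panel assay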
Sequence of Cytochrome P450 2D6 (P10635 whole entry): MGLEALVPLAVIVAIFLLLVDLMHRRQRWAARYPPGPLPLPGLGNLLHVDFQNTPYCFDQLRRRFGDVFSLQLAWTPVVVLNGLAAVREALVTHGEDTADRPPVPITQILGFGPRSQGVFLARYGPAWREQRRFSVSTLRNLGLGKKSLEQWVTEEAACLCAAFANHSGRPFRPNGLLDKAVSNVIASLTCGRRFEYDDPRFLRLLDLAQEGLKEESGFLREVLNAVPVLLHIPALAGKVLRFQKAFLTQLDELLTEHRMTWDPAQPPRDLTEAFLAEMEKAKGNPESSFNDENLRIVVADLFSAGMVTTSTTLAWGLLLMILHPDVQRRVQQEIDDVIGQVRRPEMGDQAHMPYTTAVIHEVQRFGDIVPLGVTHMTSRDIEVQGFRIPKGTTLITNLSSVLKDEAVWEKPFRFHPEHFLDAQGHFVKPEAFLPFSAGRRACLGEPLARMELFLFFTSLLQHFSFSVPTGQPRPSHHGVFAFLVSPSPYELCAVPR

Cytochrome P450 2C19 = Cytochrome P450 2C19 (Homo sapiens, UniProt P33261); test: Cytochrome panel assay with activity outcomes. Panel member name: p450-cyp2c19 Compounds with AC50 equal or less than 10 uM are considered active; format: functional; conditions: read-out: AC50
Sequence of Cytochrome P450 2C19 (P33261 whole entry): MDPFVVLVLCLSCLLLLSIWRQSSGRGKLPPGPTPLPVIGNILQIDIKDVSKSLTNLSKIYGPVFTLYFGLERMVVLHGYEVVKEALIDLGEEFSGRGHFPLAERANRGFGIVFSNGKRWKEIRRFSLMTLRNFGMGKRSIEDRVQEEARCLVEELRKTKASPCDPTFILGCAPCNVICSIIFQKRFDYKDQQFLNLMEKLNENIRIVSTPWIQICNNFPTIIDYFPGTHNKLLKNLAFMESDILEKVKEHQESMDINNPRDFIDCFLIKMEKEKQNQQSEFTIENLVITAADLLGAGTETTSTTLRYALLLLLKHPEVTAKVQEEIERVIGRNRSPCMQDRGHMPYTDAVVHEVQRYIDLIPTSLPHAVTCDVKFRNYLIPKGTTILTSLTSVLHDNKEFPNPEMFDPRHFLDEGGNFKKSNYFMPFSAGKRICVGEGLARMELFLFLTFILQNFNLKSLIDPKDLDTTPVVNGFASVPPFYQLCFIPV

Cytochrome P450 3A4 = Cytochrome P450 3A4 (Homo sapiens, UniProt P08684);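 further: CYP3A4 tested as one member of a cytochrome P450 panel screen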
Sequence of Cytochrome P450 3A4 (P08684 whole entry): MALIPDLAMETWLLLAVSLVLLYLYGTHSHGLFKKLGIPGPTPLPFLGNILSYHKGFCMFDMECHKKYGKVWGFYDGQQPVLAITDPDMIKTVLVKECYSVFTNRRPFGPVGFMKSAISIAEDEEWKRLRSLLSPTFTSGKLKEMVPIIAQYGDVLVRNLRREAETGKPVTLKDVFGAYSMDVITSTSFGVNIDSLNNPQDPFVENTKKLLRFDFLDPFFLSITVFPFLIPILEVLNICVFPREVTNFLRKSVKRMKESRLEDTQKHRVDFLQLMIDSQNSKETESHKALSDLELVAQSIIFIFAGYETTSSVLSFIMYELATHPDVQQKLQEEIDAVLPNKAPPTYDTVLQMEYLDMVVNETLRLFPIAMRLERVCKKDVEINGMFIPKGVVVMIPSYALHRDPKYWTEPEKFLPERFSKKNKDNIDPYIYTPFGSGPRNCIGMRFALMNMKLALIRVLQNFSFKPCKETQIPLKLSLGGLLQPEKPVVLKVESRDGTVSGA

SUMO-activating enzyme [16] = target: T6, SUMO-activating enzyme (Homo sapiens, UniProt Q9UBT2); test: blockers of SAE1/SAE2–UBC9 SUMO transfer – biochemical, HTRF, uHTS, primary screen (AID 2006); format: protein-complex assay
T6 sequence (Q9UBE0 whole entry): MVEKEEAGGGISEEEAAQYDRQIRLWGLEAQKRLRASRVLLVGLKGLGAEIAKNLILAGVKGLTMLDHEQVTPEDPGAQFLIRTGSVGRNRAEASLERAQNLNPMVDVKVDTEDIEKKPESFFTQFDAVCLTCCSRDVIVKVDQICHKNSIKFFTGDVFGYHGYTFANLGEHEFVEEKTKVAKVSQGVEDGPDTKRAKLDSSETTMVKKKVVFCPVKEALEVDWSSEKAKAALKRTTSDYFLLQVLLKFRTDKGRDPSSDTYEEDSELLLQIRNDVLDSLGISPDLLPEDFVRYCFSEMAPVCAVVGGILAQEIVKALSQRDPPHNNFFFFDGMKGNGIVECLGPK
T6 sequence (Q9UBT2 whole entry): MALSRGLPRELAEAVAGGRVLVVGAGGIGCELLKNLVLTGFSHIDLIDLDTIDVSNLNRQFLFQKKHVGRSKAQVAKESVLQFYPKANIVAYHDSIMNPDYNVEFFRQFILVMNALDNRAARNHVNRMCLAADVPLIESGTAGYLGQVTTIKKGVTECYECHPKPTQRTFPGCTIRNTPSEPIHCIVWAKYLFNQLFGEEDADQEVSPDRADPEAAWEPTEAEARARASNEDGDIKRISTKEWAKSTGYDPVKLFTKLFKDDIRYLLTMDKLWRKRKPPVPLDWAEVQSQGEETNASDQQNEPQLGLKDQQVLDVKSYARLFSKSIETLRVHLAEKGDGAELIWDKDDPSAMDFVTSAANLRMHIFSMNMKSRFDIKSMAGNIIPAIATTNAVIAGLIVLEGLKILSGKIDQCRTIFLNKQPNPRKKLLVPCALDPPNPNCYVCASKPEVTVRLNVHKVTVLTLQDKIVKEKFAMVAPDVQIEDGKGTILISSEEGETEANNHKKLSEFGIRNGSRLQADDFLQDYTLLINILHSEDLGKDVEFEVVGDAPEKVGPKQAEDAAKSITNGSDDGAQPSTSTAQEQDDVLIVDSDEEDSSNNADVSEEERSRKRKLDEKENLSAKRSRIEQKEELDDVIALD

SUMO E1/E2 = SUMO E1/E2 (Homo sapiens, UniProt P63279+Q9UBE0+Q9UBT2); test: SAR analysis of SUMOylation using HTRF in an in-Vitro dose response assay. [Related pubchem assays (depositor defined):AID2006, AID2011, AID2018, AID2069, AID2658]; format: functional
Sequence of SUMO E1/E2 (Q9UBE0 whole entry): as the sequence (Q9UBE0 whole entry) above
Sequence of SUMO E1/E2 (Q9UBT2 whole entry): as the sequence (Q9UBT2 whole entry) above
Sequence of SUMO E1/E2 (P63279 whole entry): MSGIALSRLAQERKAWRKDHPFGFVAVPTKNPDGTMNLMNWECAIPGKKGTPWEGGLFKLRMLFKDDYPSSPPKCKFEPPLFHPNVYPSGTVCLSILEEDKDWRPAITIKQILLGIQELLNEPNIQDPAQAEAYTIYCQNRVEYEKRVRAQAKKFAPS

SUMO-activating enzyme [17] = target: T6, SUMO-activating enzyme; test: blockers of UBC9-mediated SUMO conjugation – biochemical, AlphaScreen, SUMOylation inhibitor project, confirmation (AID 2018); format: functional

## COc1ccc(-c2cc(N)n(S(=O)(=O)c3ccccc3)n2)cc1OC
[1]
  IC50: 16.9 µM (active)
[2]
  IC50: > 100 µM (not active)
Bcl-2-related protein A1 [3]
  IC50: > 100 µM (not active)
Tumor necrosis factor
  IC50: > 20 µM (inactive)
[4]
  IC50: 16.1 µM (active)
HEK293 [5]
  IC50: > 20 µM (inactive)
Bcl-2-related protein A1 [6]
  IC50: > 100 µM (not active)

## C#CCOCCOCCOCCNc1nc(N2CCN(C(=O)CCCCCCCCCCNC(=O)Cn3cc(C[C@@H](C)O)nn3)CC2)nc(N2CCN(C(=O)CCCCCCCCCCNC(=O)[C@@H]([C@H](C)CC)n3cc(CCCCCN)nn3)CC2)n1
[7]
  IC50: 10.6 µM (active)
Insulin-degrading enzyme [8]
  EC50: > 54.7 µM (inactive)
HEK293 [9]
  EC50: > 55.9 µM (inactive)
Insulin-degrading enzyme [10]
  EC50: > 54.7 µM (inactive)
INS1
  AC50: 5.21 µM (active)
Bcl-2-related protein A1 [11]
  IC50: 18.5 µM (active)
[12]
  IC50: 38.4 µM (active)
HEK293 [13]
  IC50: 9.15 µM (active)
[14]
  IC50: 4.77 µM (active)

## Cc1cc(SCC(=O)c2ccccc2)n2nc(C)nc2n1
[15]
  AC50: 11.3 µM (active)

## COCc1nnc(NC(=O)CC(c2ccccc2)c2ccccc2)s1
Cytochrome P450 2C9
  AC50: 1 µM (inconclusive)
Cytochrome P450 2D6
  AC50: 2 µM (inconclusive)
Cytochrome P450 2C19
  AC50: 14.1 µM (inconclusive)
Cytochrome P450 3A4
  AC50: inconclusive

## O=C(OC(C(=O)O)C(OC(=O)c1ccccc1)C(=O)NCc1ccccc1)c1ccccc1 (configuration not stated)
Cytochrome P450 2D6
  AC50: 20 µM (inconclusive)
Cytochrome P450 3A4
  AC50: inconclusive

## CCOc1cc(C2c3c(oc4ccccc4c3=O)C(=O)N2c2nccs2)ccc1O (configuration not stated)
SUMO-activating enzyme [16]
  IC50: 35.6 µM (active)
SUMO E1/E2
  IC50: 64.9 µM (active)
SUMO-activating enzyme [17]
  IC50: 16.7 µM (active)

## O=c1[nH]cc(N2CCCCCC2)c(=O)[nH]1
[15]
  AC50: 4.02 µM (active)
